Results published in ChEMBL document CHEMBL1201862, “PubChem BioAssay data set” (2004).
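Interpolation was linear, between the two tested concentrations surrounding the appropriate level; five concentrations were tested over 48 hours in 96-well plates. The concentration for 50% growth inhibition is given as GI50.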 The source made the active and inactive calls. Rule as the data show it: active = GI50 up to about 1.1 µM and inactive = higher.

How the values were obtained:
Test in all cases: NCI-60 cell line screen, 48 h
[1] = tested on: A549
[2] = tested on: ACHN
[3] = tested on: HOP-62
[4] = tested on: KM-20L2
[5] = tested on: NCI-H23
[6] = tested on: OVCAR-3
[7] = tested on: OVCAR-4
[8] = tested on: RXF 393
[9] = tested on: SF-295
[10] = tested on: SN12C
[11] = tested on: SNB-75
[12] = tested on: TK-10
[13] = tested on: U-251
[14] = tested on: UO-31
[15] = tested on: A498
[16] = tested on: SK-MEL-5
[17] = tested on: SK-OV-3
[18] = tested on: MDA-MB-231
[19] = tested on: MDA-MB-435
[20] = tested on: NCI/ADR-RES

Measured: GI50

COC(=O)C1C(/C=C/c2ccoc2)ON2CCC[C@@H]12 (some centres undefined)
inactive: [1] > 100 µM | [2] 67.8 µM | [3] > 100 µM | [4] > 100 µM | [5] > 100 µM | [6] > 100 µM | [7] > 100 µM | [8] 47.8 µM | [9] > 100 µM | [10] > 100 µM | [11] 87.5 µM | [12] > 100 µM | [13] > 100 µM | [14] > 100 µM

COc1ccc(-c2c(N)[n+]([O-])c3ccccc3[n+]2[O-])cc1OC
inactive: [15] > 100 µM | [1] > 100 µM | [2] > 100 µM | [3] > 100 µM | [4] > 100 µM | [5] > 100 µM | [6] > 100 µM | [7] > 100 µM | [9] > 100 µM | [16] > 100 µM | [17] > 100 µM | [10] > 100 µM | [11] 65.9 µM | [13] > 100 µM | [14] > 100 µM

COc1ccc2c(c1OC)C(=O)c1cnccc1C2=O
inactive: [1] > 100 µM | [2] > 100 µM | [3] > 100 µM | [4] > 100 µM | [5] > 100 µM | [6] > 100 µM | [7] > 100 µM | [8] 24.9 µM | [9] > 100 µM | [16] > 100 µM | [17] > 100 µM | [10] > 100 µM | [11] > 100 µM | [12] > 100 µM | [13] > 100 µM | [14] > 100 µM

COc1ccc(CNc2nc3c(NC(C)=O)cc(C(F)(F)F)cc3nc2-c2ccccc2)cc1OC
inactive: [15] > 100 µM | [1] 47.9 µM | [3] 42.1 µM | [4] > 100 µM | [5] 59 µM | [6] 93.1 µM | [7] 10.6 µM | [9] 50 µM | [16] 21.5 µM | [17] 40.7 µM | [10] > 100 µM | [11] 1.32 µM | [12] 32.1 µM | [13] 93.1 µM | [14] 7.45 µM

CC(C)(C)C(C#N)(C#N)c1ccc(C(C#N)(C#N)C(C)(C)C)nn1
inactive: [1] > 100 µM | [2] 82 µM | [3] > 100 µM | [4] > 100 µM | [5] > 100 µM | [6] > 100 µM | [7] 89.7 µM | [8] 43.3 µM | [9] > 100 µM | [16] > 100 µM | [17] 41.3 µM | [10] > 100 µM | [11] 23.6 µM | [12] > 100 µM | [14] > 100 µM

Cc1ccc([N+](=O)[O-])cc1NC(=O)C(=O)Cc1nc2ccc(C(=O)c3ccccc3)cc2nc1O
inactive: [1] > 100 µM | [2] > 100 µM | [3] > 100 µM | [4] > 100 µM | [5] > 100 µM | [6] > 100 µM | [7] > 100 µM | [8] > 100 µM | [9] > 100 µM | [16] > 100 µM | [17] > 100 µM | [10] > 100 µM | [11] 56.5 µM | [12] > 100 µM | [14] > 100 µM

COc1ccccc1NC(=O)CC(=O)N/N=C/c1ccc(N(CCC#N)S(=O)(=O)c2ccccc2)cc1
inactive: [1] > 100 µM | [2] > 100 µM | [3] > 100 µM | [4] > 100 µM | [5] > 100 µM | [6] > 100 µM | [7] > 100 µM | [9] > 100 µM | [16] > 100 µM | [11] > 100 µM | [12] > 100 µM | [13] > 100 µM | [14] > 100 µM

CN(C)c1ccc(C(=C2C=CC(=[N+](C)C)C=C2)c2ccc(N(C)C)cc2)cc1 [GENTIAN VIOLET]
active: [1] 0.0395 µM | [2] 0.175 µM | [3] 0.375 µM | [4] 0.206 µM | [5] 0.0594 µM | [7] 0.264 µM | [8] 0.201 µM | [9] 0.0402 µM | [16] 0.0809 µM | [17] 0.224 µM | [10] 0.21 µM | [11] 0.182 µM | [13] 0.0354 µM | [14] 0.318 µM

CN(C(=O)c1ccc(Cl)cc1)C(=S)N1CCN(c2ccccn2)CC1
inactive: [1] > 100 µM | [2] > 100 µM | [3] > 100 µM | [4] > 100 µM | [5] > 100 µM | [6] > 100 µM | [7] > 100 µM | [8] > 100 µM | [9] > 100 µM | [16] > 100 µM | [17] > 100 µM | [10] > 100 µM | [11] > 100 µM | [12] > 100 µM | [13] > 100 µM | [14] > 100 µM

NC(Cc1c[nH]c(I)n1)C(=O)O (centres undefined)
inactive: [15] > 100 µM | [1] > 100 µM | [2] > 100 µM | [3] > 100 µM | [18] > 100 µM | [19] > 100 µM | [5] 81.3 µM | [20] 37.1 µM | [6] 32.4 µM | [7] 49.9 µM | [8] 45.2 µM | [9] > 100 µM | [16] 82.2 µM | [17] > 100 µM | [10] > 100 µM | [11] 25.6 µM | [12] > 100 µM | [13] > 100 µM | [14] > 100 µM

O=C1CSC(c2ccccc2)N1c1nc2cc3sc(N4C(=O)CSC4c4ccccc4)nc3cc2s1 (centres undefined)
inactive: [15] > 100 µM | [1] 8.17 µM | [2] 35.6 µM | [3] > 100 µM | [18] 68.7 µM | [19] 55.6 µM | [5] 15 µM | [20] 25.2 µM | [6] 36.6 µM | [7] 60.1 µM | [8] > 100 µM | [9] > 100 µM | [16] 32.3 µM | [17] > 100 µM | [10] 32.4 µM | [11] 38 µM | [12] 53.2 µM | [13] 38.2 µM | [14] 40.6 µM

COC(=O)/C=C\C(C#N)(C#N)/N=C/c1cc(Br)cs1
inactive: [15] 18.5 µM | [1] 18 µM | [2] 2.22 µM | [3] 18.6 µM | [18] 9.35 µM | [19] 2.38 µM | [5] 5.33 µM | [20] 15.7 µM | [6] 7 µM | [7] 7.91 µM | [8] 2.27 µM | [9] 17.9 µM | [16] 6.3 µM | [17] 19.5 µM | [10] 3.18 µM | [11] 16.2 µM | [12] 3.11 µM | [13] 13.9 µM | [14] 2.14 µM

Clc1c2ncccc2cc2nn[nH]c12
inactive: [15] > 100 µM | [1] > 100 µM | [2] > 100 µM | [3] > 100 µM | [18] > 100 µM | [19] > 100 µM | [5] > 100 µM | [20] > 100 µM | [6] > 100 µM | [7] > 100 µM | [8] > 100 µM | [9] 41 µM | [16] > 100 µM | [17] > 100 µM | [10] > 100 µM | [11] 28.5 µM | [12] > 100 µM | [13] > 100 µM | [14] 82.6 µM

Cc1ccc(C(c2c(O)c3ccccc3n(-c3ccccc3)c2=O)c2c(O)c3ccccc3n(-c3ccccc3)c2=O)cc1
inactive: [1] > 100 µM | [2] 89.3 µM | [3] > 100 µM | [4] > 100 µM | [5] > 100 µM | [6] > 100 µM | [7] > 100 µM | [8] 53.2 µM | [16] > 100 µM | [10] > 100 µM | [12] > 100 µM | [13] > 100 µM | [14] > 100 µM

COc1ccc2c(c1)/C(=C\c1c(Cl)nc3n1CCS3)C(=O)N2
inactive: [15] 4.89 µM | [1] 5.62 µM | [2] 11 µM | [3] 6.35 µM | [18] 5.14 µM | [19] 1.29 µM | [5] 11.2 µM | [20] 4.48 µM | [6] 2.77 µM | [7] 11.9 µM | [8] 2.13 µM | [9] 3.72 µM | [16] 5.06 µM | [17] 13.1 µM | [10] 10.8 µM | [11] 10.8 µM | [12] 5 µM | [13] 5.37 µM | [14] 5.86 µM

COc1cc2cnc(-c3ccccc3)cc2cc1OC
active: [15] 0.252 µM
inactive: [1] 28.5 µM | [2] 23.3 µM | [3] 56.1 µM | [18] 19.1 µM | [19] 26.9 µM | [5] 20.9 µM | [20] 26 µM | [6] 24.3 µM | [7] 24.3 µM | [8] 37.2 µM | [9] 19.5 µM | [16] 11.8 µM | [17] 39.7 µM | [10] 3.5 µM | [11] 41.1 µM | [12] 25.7 µM | [13] 19.8 µM | [14] 29.5 µM

C1CCSCCCCSCCCCSCCCCSC1
inactive: [15] > 100 µM | [1] > 100 µM | [2] > 100 µM | [3] > 100 µM | [18] > 100 µM | [19] > 100 µM | [5] > 100 µM | [20] > 100 µM | [6] > 100 µM | [7] > 100 µM | [8] > 100 µM | [9] > 100 µM | [16] > 100 µM | [17] > 100 µM | [10] > 100 µM | [11] 64 µM | [12] > 100 µM | [13] > 100 µM | [14] > 100 µM
